Assay results reported in publication PMC11448502, “Cryo-EM structures of the human P2X1 receptor reveal subtype-specific architecture and antagonism by supramolecular ligand-binding” (Nature Communications, 2024).

B1: full-length wild-type human P2X1 receptor (receptor, UniProt P51575 1-399, looked up)
chain: MARRFQEELAAFLFEYDTPRMVLVRNKKVGVIFRLIQLVVLVYVIGWVFLYEKGYQTSSGLISSVSVKLKGLAVTQLPGLGPQVWDVADYVFPAQGDNSFVVMTNFIVTPKQTQGYCAEHPEGGICKEDSGCTPGKAKRKAQGIRTGKCVAFNDTVKTCEIFGWCPVEVDDDIPRPALLREAENFTLFIKNSISFPRFKVNRRNLVEEVNAAHMKTCLFHKTLHPLCPVFQLGYVVQESGQNFSTLAEKGGVVGITIDWHCDLDWHVRHCRPIYEFHGLYEEKNLSPGFNFRFARHFVENGTNYRHLFKVFGIRFDILVDGKAGKFDIIPTMTTIGSGIGIFGVATVLCDLLLLHILPKRHYYKQKKFKYAEDMGPGAAERDLAATSSTLGLQENMRTS
modifications: N-linked glycosylation (N-acetylglucosamine modelled in the extracellular domain, e.g. at N184)
notes: human P2X1 receptor (P2X purinoceptor 1), full-length wild type, no mutations or truncations; Cytoplasmic N- and C-terminal residues are not visible in the maps; also called hP2X1; hP2X1-WT; source: HEK293 GNTI- cells, BacMam baculovirus transduction; solubilised in DDM/CHS, purified (TALON resin, HRV 3C protease digestion, SEC on Superdex 200 increase)

Tests used:
P2X1 = settings: reviewer comment, no reference given; cited from earlier work
[1] = target: the molecule itself; test: cryo-EM structure; single particle cryo-EM of purified hP2X1 in C12M (DDM)/CHS, 20 mM HEPES pH 7.0, 100 mM NaCl, 5 mg/mL; three states: apo closed, ATP-bound desensitized (endogenous ATP), NF449-bound inhibited (400 uM NF449)

Molecule	potency for P2X1 relative to P2X3 (P2X1) [times]	stoichiometry N [1]
Nc1ncnc2c1ncn2[C@@H]1O[C@H](COP(=O)(O)CP(=O)(O)OP(=O)(O)O)[C@@H](O)[C@H]1O [α, β-MeATP]	10	
B1		3
